{"source": "patent US12636291B2", "about": "“Compositions and methods relating to use of agonists of ALPHA5-containing GABAA receptors” (Centre for Addiction and Mental Health, priority 2019, dated 2026)", "key": {"SV129 mice": {"tested_on": "SV129 mice", "test": "Neurogenesis (proliferation, survival, maturation) in the SV129 mouse model", "format": "in vivo", "conditions": "compared to VEH", "source_text": "We next assessed the effects of GL-II-73 on neurogenesis using the SV129 mouse model Kim et al. 2017. Neural Plasticity, doi.org.10.1155/2017/5863258. Specifically, we assessed the effects of treatment on neuronal cell proliferation, survival, and maturation. It is now recognized that neurogenesis occurs not only during development, but also in the adult brain. […] Specifically, adult neurogenesis is known to occur in three regions in the mammalian brain: (i) the subgranular zone (SGZ) of the dentate gyrus in the hippocampus, which is a region that is involved in regulating learning and memory; (ii) the subventricular zone (SVZ), which is situated throughout the lateral walls of the brain's lateral ventricles; and (ii) the amygdala. New neurons born in the SGZ migrate into the granule cell layer of the dentate gyrus and eventually become granule cells. These newborn neurons integrate into the existing circuitry and receive functional input. Adult neurogenesis in the hippocampus is therefore defined as the progression from neural stem cell to mature dentate granule neuron. All stages of adult neurogenesis are regulated by physiological activity, including the proliferation, differentiation, fate determination of adult neural stem cells (NSCs) and progenitors, and the survival, maturation, and integration of newborn neurons.\nThe stages of neurogenesis can be broken down into (i) proliferation, (ii) survival of the newly formed cells, and (iii) their maturation. Each can be evaluated using specific markers for proliferation, survival, and maturation. […] BrdU can be used to show survival of the newly proliferating cells since it is incorporated into the newly synthesized DNA of replicating cells and is then maintained in the newly formed cells. Thus, quantitative immunohistochemistry against BrdU is used as a proxy of survival. Finally, doublecortin can be used as a proxy of maturation. Previous studies have shown that all steps of neurogenesis were down regulated in the SV129 mice, and further that chronic treatment with fluoxetine, a first line monoaminergic antidepressant, increased the neurogenesis in this mouse model. We therefore used this model system to assess the effects of chronic treatment with GL-II-73 on neurogenesis.\nFluoxetine treatment was used as a positive control in each experiment."}, "[1]": {"tested_on": "pyramidal cells in the CA1 region of the hippocampus", "test": "Golgi staining morphological analysis of CA1 pyramidal cells", "format": "in vivo, mouse", "conditions": "for total spine counts, apical dendrites / total spine counts, basal dendrites: FIG. 19B; for overall spine density: FIG. 20A; for spine density, apical dendrites / spine density, basal dendrite: FIG. 20B; for spine density versus branch order, overall: FIG. 21A; for spine density versus branch order, basal dendrites: FIG. 21B; for spine density versus branch order, apical dendrites: FIG. 21C; for spine density at 30 um intervals from the soma, overall: FIG. 22A; for spine density at 30 um intervals from the soma, basal dendrites: FIG. 22B; for spine density at 30 um intervals from the soma, apical dendrites: FIG. 22C", "description": "Details of the animals, materials, and methods used are provided following the discussion section below. Briefly, all studies discussed below were conducted using three groups of animals designated “Young” (2 months of age at the beginning of the 8-week study, 4 months of age at time of testing; “Old” (22 months of age at beginning of study, 24 months of age at time of testing); and “Treatment” (“Old” mice who received GL-II-73 in the drinking water for 8 weeks prior to evaluation of cognitive ability and pyramidal cell morphology). The last study further included a fourth group of animals, “Treatment+Washout” which were treated the same as the “Treatment” group except that the GL-II-73 was removed for a 1 week “wash-out” period prior to evaluation of pyramidal cell morphology.\nWe confirmed and extended these findings by conducting similar analyses of pyramidal cells in a different brain region, namely the CA1 region of the hippocampus, using the same animals. […] As observed above for the pyramidal cells of the PFC, the morphology of the CA1 pyramidal cells in the treatment group was very similar to that of the young mice. […] The positive correlation between the morphological changes observed in each of the three groups of animals in both regions of the brain, CA1 vs PFC brain regions is shown in FIGS. 11-12. This positive correlation of morphological changes across these two regions of the brain indicates a common factor underlying the effects in both regions.\nWe also performed the same morphological analyses of pyramidal cells in the CA1 region of the hippocampus for each group.\nDrug preparation and administration: The compound GL-II-73 was administered in the drinking water for 8 weeks, and made fresh every other day to prevent any deterioration of the compound in the water at room temperature. The solution was prepared at 30 mg/kg for an estimated volume of 8 ml/mouse/day, based on previous calculations. For the pilot study in the 5×FAD mouse model, the compound GL-II-73 was prepared for intra peritoneal injection only, at a dose of 10 mg/kg. Vehicle solution was made of 85% distilled water, 14% propylene glycol and 1% tween-80.\nBrain collection and Golgi staining: Twenty-four hours after the completion of the behavioral testing, mice were euthanized using cervical dislocation. Brains were carefully collected from the skull, rinsed with MilliQ water and immersed in the Golgi staining solution provided by Neurodigitech (San Diego, CA). Six hours after the beginning of the incubation, the solution was changed to provide fresh solution. Then brains were left incubating for 14 days at room temperature, in the dark. For better results, vials containing the brains were gently swirled 3 times a week. After the incubation period, the staining solution was discarded and replaced by a storage solution and brains (n=4 per group) were shipped to Neurodigitech for morphological analysis.\nSample selection criteria: The sampling process was conducted as follows: The investigators first 1) previewed the entire rostro-caudal axis of ROIs, under low-mag Zeiss objectives (10× and 20×), 2), compared and located those with the least truncations of distal dendrites as possible under high-mag Zeiss objectives (40× and 63×), 3), and then 4) used a Zeiss 100× objective with immersion oil to perform 3D dendritic reconstruction, followed by counting of the spines throughout the entire dendritic trees. The criteria for selecting candidate neurons for analysis were based on i) visualization of a completely filled soma with no overlap of neighboring soma and completely filled dendrites, ii) the tapering of most distal dendrites; iii) the visualization of the complete 3-D profile of dendritic trees using the 3-D display of imaging software. Neurons with incomplete impregnation and/or neurons with truncations due to the plane of sectioning were not collected. […]"}, "[2]": {"conditions": "Table 3, Old, Treatment group, 4 samples"}, "[3]": {"conditions": "Table 3, Old, Washout group, 4 samples"}, "[4]": {"conditions": "first study, Old+Treatment mice"}, "[5]": {"conditions": "washout study, Old+Treatment vs Young mice, p>0.05"}, "[6]": {"conditions": "washout study, Washout vs Old mice, p<0.05"}, "[7]": {"conditions": "washout study, Old+Treatment vs Old mice, p<0.05"}}, "data": [{"smiles": "C#Cc1ccc2c(c1)C(c1ccccc1F)=N[C@H](C)c1c(C(=O)N(C)C)ncn1-2", "note": "(stereo in doubt) [GL-II-73, 8-ethynyl-6-(2-fluorophenyl)-N,N,4-trimethyl-4H-benzo[f]imidazo[1,5-a][1,4]diazepine-3-carboxamide]", "values": [{"measurement": "proliferation: number of K167-positive cells", "setting": "SV129 mice; chronic treatment (4 weeks), FIG. 13A, FLX p<0.001, GL-II-73 p<0.05", "result": "increased the number of K167-positive cells"}, {"measurement": "survival: BrdU-positive cells", "setting": "SV129 mice; chronic treatment (4 weeks), FIG. 13B", "result": "increased survival as shown by the increased in BrdU labeling in SV129 mice, as shown in FIG. 13B, even though not reaching significance"}, {"measurement": "maturation index (DCX+cells possessing tertiary dendrites over the total DCX+cells)", "setting": "SV129 mice; chronic treatment, FIG. 14B, ps<0.01", "result": "an increase with both FLX and GL-II-73"}, {"measurement": "Total segments", "setting": "[1]; Table 3, washout study, Old, Treatment group (8 weeks GL-II-73), 4 samples", "result": 1226}, {"measurement": "Overall spinal density", "setting": "[1]; [2]", "result": 1.07}, {"measurement": "Total lengths (microns)", "setting": "[1]; [2]", "result": 60170, "unit": "microns"}, {"measurement": "total spine counts", "setting": "[1]; [2]", "result": 64468}, {"measurement": "Total segments", "setting": "[1]; Table 3, Old, Washout group (8 weeks GL-II-73, then 1 week wash-out), 4 samples", "result": 1266}, {"measurement": "Overall spinal density", "setting": "[1]; [3]", "result": 1.10}, {"measurement": "Total lengths (microns)", "setting": "[1]; [3]", "result": 65954, "unit": "microns"}, {"measurement": "total spine counts", "setting": "[1]; [3]", "result": 72587}, {"measurement": "Frequency of Intersections × 30 um interval from soma, apical", "setting": "[1]; [4]", "result": "at 150 um-180 um, apically"}, {"measurement": "Frequency of Intersections × 30 um interval from soma, basal", "setting": "[1]; [4]", "result": "higher frequency at 120 um-150 um, basally"}, {"measurement": "Frequency of Intersections × 30 um interval from soma", "setting": "[1]; first study, Old+Treatment vs Old mice", "result": "higher frequency of intersections at the middle (120 um to 180 um) of the dendritic field than Old mice"}, {"measurement": "spine density", "setting": "[1]; first study, treatment group vs untreated old mice", "result": "relatively higher spine density than the untreated group of old mice"}, {"measurement": "total spine counts", "setting": "[1]; washout study, FIG. 19A, Old+Treatment vs Young mice, p>0.05", "result": "no difference was found between Young and Old+Treatment as well as Washout mice"}, {"measurement": "total spine counts", "setting": "[1]; washout study, FIG. 19A, Washout (1 week after 8 weeks GL-II-73) vs Old mice, p<0.05", "result": "higher spine counts than Old mice"}, {"measurement": "total spine counts, apical dendrites", "setting": "[1]; [5]", "result": "no difference in total spine counts of both basal and apical dendrites between Young and Old+Treatment as well as Washout mice"}, {"measurement": "total spine counts, basal dendrites", "setting": "[1]; [5]", "result": "no difference in total spine counts of both basal and apical dendrites between Young and Old+Treatment as well as Washout mice"}, {"measurement": "total spine counts, apical dendrites", "setting": "[1]; [6]", "result": "higher spine counts of apical dendrites than Old mice"}, {"measurement": "total spine counts, basal dendrites", "setting": "[1]; [6]", "result": "higher spine counts of basal dendrites than Old mice"}, {"measurement": "overall spine density", "setting": "[1]; [7]", "result": "higher spine density than Old mice"}, {"measurement": "overall spine density", "setting": "[1]; [6]", "result": "higher spine density than Old mice"}, {"measurement": "spine density, apical dendrites", "setting": "[1]; [7]", "result": "Old mice exhibited a lower spine density than Young, Old+Treatment and Washout mice"}, {"measurement": "spine density, basal dendrite", "setting": "[1]; [7]", "result": "Old mice showed a significant decrease in the basal dendrite as compared to Young, Old+Treatment and Washout mice"}, {"measurement": "spine density, apical dendrites", "setting": "[1]; [6]", "result": "Old mice exhibited a lower spine density than Young, Old+Treatment and Washout mice"}, {"measurement": "spine density, basal dendrite", "setting": "[1]; [6]", "result": "Old mice showed a significant decrease in the basal dendrite as compared to Young, Old+Treatment and Washout mice"}, {"measurement": "spine density versus branch order, overall", "setting": "[1]; [7]", "result": "higher spine density at the 1st and 5th branch orders"}, {"measurement": "spine density versus branch order, overall", "setting": "[1]; [6]", "result": "higher spine density at the 1st and 3rd to 6th"}, {"measurement": "spine density versus branch order, basal dendrites", "setting": "[1]; [7]", "result": "higher density at the 1st branch order than Old mice"}, {"measurement": "spine density versus branch order, basal dendrites", "setting": "[1]; [6]", "result": "higher density at the 1st branch order than Old mice"}, {"measurement": "spine density versus branch order, apical dendrites", "setting": "[1]; [7]", "result": "higher density at the 1st order than Old mice"}, {"measurement": "spine density versus branch order, apical dendrites", "setting": "[1]; [6]", "result": "at the 4th and 5th orders than Old mice"}, {"measurement": "spine density at 30 um intervals from the soma, overall", "setting": "[1]; [7]", "result": "higher spine density at 30 um to 60 um and 120 um to 240 um from soma"}, {"measurement": "spine density at 30 um intervals from the soma, overall", "setting": "[1]; [6]", "result": "higher spine density at 30 um to 180 um from soma"}, {"measurement": "spine density at 30 um intervals from the soma, basal dendrites", "setting": "[1]; [7]", "result": "higher density at 30 um from soma than Old mice"}, {"measurement": "spine density at 30 um intervals from the soma, basal dendrites", "setting": "[1]; [6]", "result": "higher density at 30 um from soma than Old mice"}, {"measurement": "spine density at 30 um intervals from the soma, apical dendrites", "setting": "[1]; [7]", "result": "higher density at 120 um to 180 um from soma than Old mice"}, {"measurement": "spine density at 30 um intervals from the soma, apical dendrites", "setting": "[1]; [6]", "result": "higher spine density at 30 um to 60 um and 120 um to 210 um from soma than Old mice"}]}]}
